Common to all, as to assay type: cell-based
Assay [1] concerns S. cerevisiae. The assay can be described thus: Growth inhibition test. To be noted: yeast S. cerevisiae. As for the experimental part: (§1) The peptides to which this invention relates are members of the family of natriuretic peptides. […] The form of ANP which occurs in the kidneys, urodilatin, was first isolated in 1988 by Forssmann et al. (Schulz-Knappe et al., 1988). […] A useful test for recognizing antibiotic activity is the growth inhibition test of Lehrer et al. (Lehrer et al. J. Immun. Methods, Vol. 137, p. 167, 1991).
(§2) The purity and identity of the peptides is determined by mass spectrometry (quadrupole electrospray mass spectrometry, Sciex API 111, Perkin Elmer) and sequencing in a gas-phase sequencer (model 470, Applied Biosystems, Weiter-stadt) and checked by capillary zone electrophoresis. The biological activity is verified by the growth inhibition test.

Assay [2] has as its system P. fluorescens. The assay can be described thus: Growth inhibition test. The conditions noted are these: Gram-negative bacteria. As for the experimental part: as §1, §2
Assay [3] has as its system E. coli. As to the kind of experiment: Growth inhibition test. To be noted: Gram-negative bacteria. As for the experimental part: as §1, §2
The test system of assay [4] is M. luteus. The assay can be described thus: Growth inhibition test. To be noted: Gram-positive bacteria. Here is the method: as §1, §2
Assay [5] has as its system B. subtilis. As to the kind of experiment: Growth inhibition test. To be noted: Gram-positive bacteria. Here is the method: as §1, §2
Assay [6] relates to Streptococcus carnosus. The assay can be described thus: Radial diffusion growth inhibition test according to Lehrer et al. The conditions noted are these: for growth-inhibiting effect: Gram-positive bacteria.
Excerpt: as §1
(§3) Radial diffusion growth inhibition test with Streptococcus carnosus and N. cinerea according to Lehrer et al. (Lehrer et al., J. Immun. Methods, Vol. 137, p. 167, 1991).
as §2

Assay [7] concerns N. cinerea. The description is as above. To be noted: for growth-inhibiting effect: Gram-negative bacteria.
Excerpt: as §1, §3, §2

The mark [8] stands for this setting: after application of 1 μg, Streptococcus carnosus.

Turning to “Thr-Ala-Pro-Arg-Ser-Leu-Arg-Arg-Ser-Ser-Cys-Phe-Gly-Gly-Arg-Met-Asp-Arg-Jle-Gly-Ala-Gln-Ser-Gly-Leu-Gly-Cys-Asn-Ser-Phe-Arg-Tyr [urodilatin]”, the growth-inhibiting effect entry in assay [1], in assay [2], in assay [3], in assay [4], in assay [5] and in assay [6] (S. carnosus) was “growth-inhibiting effect” each time. Besides, the growth-inhibiting effect result in assay [7] is on record as “growth-inhibiting effect”. Further, the inhibition halos entry in assay [6] (setting [8]) and in assay [7] (after application of 1 μg) was “inhibition halos can be observed” in each case.
On to “Gly-Leu-Ser-Lys-Gly-Cys-Phe-Gly-Leu-Lys-Leu-Asp-Arg-Ile-Gly-Ser-Met-Ser-Gly-Leu-Gly-Cys (GLSKGCFGLKLDRIGSMSGLGC; listed as Homo sapiens) [CNP]”, for which the inhibition halos result in assay [6] (after application of 7 μg, S. carnosus) is recorded as “inhibition halos can be observed”; in assay [7] (after application of 11 μg), “inhibition halos can be observed”.
Take `CC[C@H](C)[C@@H]1NC(=O)[C@H](CCCNC(=N)N)NC(=O)[C@H](CC(=O)O)NC(=O)[C@H](CCSC)NC(=O)[C@H](CCCNC(=N)N)NC(=O)CNC(=O)CNC(=O)[C@H](Cc2ccccc2)NC(=O)[C@@H](NC(=O)[C@H](CO)NC(=O)[C@H](CO)NC(=O)[C@H](CCCNC(=N)N)NC(=O)[C@H](CCCNC(=N)N)NC(=O)[C@H](CC(C)C)NC(=O)[C@@H](N)CO)CSSC[C@@H](C(=O)N[C@@H](CC(N)=O)C(=O)N[C@@H](CO)C(=O)N[C@@H](Cc2ccccc2)C(=O)N[C@@H](CCCNC(=N)N)C(=O)N[C@@H](Cc2ccc(O)cc2)C(=O)O)NC(=O)CNC(=O)[C@H](CC(C)C)NC(=O)CNC(=O)[C@H](CO)NC(=O)[C@H](CCC(N)=O)NC(=O)[C@H](C)NC(=O)CNC1=O` [ANP]: the growth-inhibiting effect result in assay [1], in assay [2], in assay [3], in assay [4], in assay [5] and in assay [6] (S. carnosus) was “growth-inhibiting effect” in each case. In assay [7], the growth-inhibiting effect result is recorded as “growth-inhibiting effect”. For the same compound, the inhibition halos result in assay [6] (setting [8]) and in assay [7] (after application of 1 μg) was “inhibition halos can be observed” each time.
